Source: patent EP0176999A2, “Amino acid derivatives, process for their preparation and pharmaceutical compositions” (BOEHRINGER INGELHEIM KG, priority 1984, dated 1986)

Experiments:
Angiotensin I = assay: Lowering of blood pressure raised by i.v. angiotensin I in the anaesthetised rat; format: in vivo, Ratte; details: anaesthetised rat, 0,3 mg/kg i.v.; blood pressure raised beforehand by 0,1 mg/kg Angiotensin I i.v.
Description: So erzeugt N-[N^α-(3-Phenyl-2-S-mercaptopropanoyl)-S-lysyl]-thiazolidin-4-S-carbonsäure an der narkotisierten Ratte in einer Dosierung von 0,3 mg/kg i.v. eine lang anhaltende Blutdrucksenkung von 60 %, wenn man vorher durch eine i.v.-Gabe von 0,1 mg/kg Angiotensin I den Blutdruck steigert; beim N-[N^a-(3-Phenyl-2-S-mercaptopropanoyl)S-lysyl]-S-prolin liegt der Wert bei gleichem Test bei 57 %.

[1] = target: T1, Angiotensin I Converting Enzym (Oryctolagus cuniculus, UniProt P12822); assay: Inhibition of angiotensin I converting enzyme in vitro; format: biochemical; details: inhibitor concentration at which the enzyme is 50 % inhibited (Cheung, Cushman method), read-out: Hemmaktivität IC50
T1 sequence (P12822 34-1310): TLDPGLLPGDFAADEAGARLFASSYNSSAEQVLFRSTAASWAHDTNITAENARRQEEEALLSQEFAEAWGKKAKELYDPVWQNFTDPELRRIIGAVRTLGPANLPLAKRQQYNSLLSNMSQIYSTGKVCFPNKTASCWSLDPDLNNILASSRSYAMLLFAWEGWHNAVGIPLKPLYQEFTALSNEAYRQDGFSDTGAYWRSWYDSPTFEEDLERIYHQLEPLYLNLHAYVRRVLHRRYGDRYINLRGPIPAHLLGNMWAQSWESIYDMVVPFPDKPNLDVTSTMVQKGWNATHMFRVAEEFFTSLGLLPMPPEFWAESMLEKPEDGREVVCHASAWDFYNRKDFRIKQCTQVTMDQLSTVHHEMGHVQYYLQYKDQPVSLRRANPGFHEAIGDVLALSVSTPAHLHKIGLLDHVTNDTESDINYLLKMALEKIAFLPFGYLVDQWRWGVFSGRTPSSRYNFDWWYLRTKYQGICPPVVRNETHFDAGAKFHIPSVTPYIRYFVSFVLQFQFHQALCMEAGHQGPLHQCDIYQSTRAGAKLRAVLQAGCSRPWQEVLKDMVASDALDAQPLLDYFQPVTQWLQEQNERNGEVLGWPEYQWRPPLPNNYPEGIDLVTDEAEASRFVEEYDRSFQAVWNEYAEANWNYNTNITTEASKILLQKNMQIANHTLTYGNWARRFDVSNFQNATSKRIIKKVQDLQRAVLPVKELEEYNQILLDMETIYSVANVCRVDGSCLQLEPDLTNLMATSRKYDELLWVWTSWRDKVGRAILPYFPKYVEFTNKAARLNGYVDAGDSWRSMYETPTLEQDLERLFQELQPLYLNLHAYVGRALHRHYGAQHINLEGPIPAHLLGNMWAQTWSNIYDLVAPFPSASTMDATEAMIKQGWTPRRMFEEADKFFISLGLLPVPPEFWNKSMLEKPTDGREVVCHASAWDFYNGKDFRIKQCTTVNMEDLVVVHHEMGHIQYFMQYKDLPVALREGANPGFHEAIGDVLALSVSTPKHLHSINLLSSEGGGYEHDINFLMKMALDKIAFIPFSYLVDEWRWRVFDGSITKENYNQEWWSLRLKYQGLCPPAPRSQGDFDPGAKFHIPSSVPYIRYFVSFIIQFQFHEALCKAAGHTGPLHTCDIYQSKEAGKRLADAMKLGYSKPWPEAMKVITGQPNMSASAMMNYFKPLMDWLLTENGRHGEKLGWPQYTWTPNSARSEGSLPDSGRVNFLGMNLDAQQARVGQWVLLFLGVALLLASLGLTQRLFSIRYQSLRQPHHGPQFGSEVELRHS
Text: N-[N^α-(3-Phenyl-2-S-mercaptopropanoyl)-S-lysyl]-thiazolidin-4-S-carbonsäure zeigt am Angiotensin I Converting Enzym in vitro eine Hemmaktivität IC50= 4,6 . 10^-9 [M]; die IC50 beträgt beim N-[N^αa-(3-Phenpl-2-S-mercaptopropanoyl)-S-lysyl]-S-prolin 2,7 . 10-^8 [M].
Als IC50 wird hierbei diejenige Hemmstoffkonzentration bezeichnet, bei der das Angiotensin I Converting Enzym zu 50 % gehemmt wird (s. H. S. Cheung, D. W. Cushman, Biochem. Biophys. Acta 293, 451 (1973)).

Row | Compound | lang anhaltende Blutdrucksenkung (Angiotensin I) [%] | IC50 [1] [nM]
1 | N-[N^α-(3-Phenyl-2-S-mercaptopropanoyl)-S-lysyl]-thiazolidin-4-S-carbonsäure [Beispiel 3] | 60 | 4.6
2 | NCCCC[C@H](NC(=O)[C@@H](S)Cc1ccccc1)C(=O)N1CCC[C@H]1C(=O)O [Beispiel 11] | 57 | –
